Test results as given in article PMC6934184, “Selective DNA-PKcs inhibition extends the therapeutic index of localized radiotherapy and chemotherapy” (The Journal of Clinical Investigation, 2019).

Target: T1, PHKG1 (Homo sapiens, UniProt Q16816)
T1 construct: purchased Thermo Fisher Scientific (Life Technologies) SelectScreen
Assay: SelectScreen Z'LYTE
Assay type: biochemical
Method in brief: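 Percent values come from Thermo SelectScreen profiling of NU5455, combining activity and binding assays. CSF1R was run in Z'LYTE format at Km app ATP, and CAMK1 in Adapta format with ATP listed at 10.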

T1 sequence (Q16816 whole entry): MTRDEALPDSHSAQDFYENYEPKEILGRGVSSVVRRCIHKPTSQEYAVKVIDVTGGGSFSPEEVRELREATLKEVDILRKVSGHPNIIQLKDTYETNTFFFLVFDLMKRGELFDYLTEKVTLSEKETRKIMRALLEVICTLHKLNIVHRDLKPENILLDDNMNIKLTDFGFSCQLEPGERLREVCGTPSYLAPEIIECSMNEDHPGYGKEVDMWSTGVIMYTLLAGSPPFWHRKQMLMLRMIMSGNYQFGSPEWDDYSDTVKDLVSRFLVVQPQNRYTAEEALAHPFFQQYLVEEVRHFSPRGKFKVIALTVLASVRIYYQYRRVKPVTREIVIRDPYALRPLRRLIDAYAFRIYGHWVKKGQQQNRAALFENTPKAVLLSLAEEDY

## CN(C(=O)CN1CCOCC1)c1ccc2sc3c(-c4cccc5c(=O)cc(N6CC7CCC(C6)O7)oc45)cccc3c2c1 [NU5455]
  inhibition at 1 µM: -5%
